This is an account of results in patent publication US6727264B1 (Synaptic Pharmaceutical Corporation, priority 2001, dated 2004).

Chain of rat MCH-1 (P97639 whole entry): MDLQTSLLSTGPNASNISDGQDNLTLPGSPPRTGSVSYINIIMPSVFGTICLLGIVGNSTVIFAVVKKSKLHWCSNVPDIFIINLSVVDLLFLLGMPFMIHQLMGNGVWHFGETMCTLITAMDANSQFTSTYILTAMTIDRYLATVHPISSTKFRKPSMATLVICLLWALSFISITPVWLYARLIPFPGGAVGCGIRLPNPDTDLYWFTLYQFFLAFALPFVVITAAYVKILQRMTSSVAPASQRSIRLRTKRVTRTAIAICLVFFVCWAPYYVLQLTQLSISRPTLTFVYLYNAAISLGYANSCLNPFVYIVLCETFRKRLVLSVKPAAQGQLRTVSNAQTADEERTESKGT

This experiment has as its target rat MCH-1 (Rattus norvegicus, UniProt P97639). Description: Radioligand binding assay at cloned rat MCH1 receptor ([3H] Compound A). Further details: host or cells: Peak rapid 293 (Peakr293) cells, transient calcium phosphate transfection, membranes. Particulars: cloned rat MCH1 receptor; 0.08 nM [3H] Compound A; Peakr293 cell membranes; read-out: Ki (nM) rMCH1.
Turning to `O=C(CCCCN1CCC(c2cccc(NC(=O)C3CC3)c2)CC1)c1ccc(C(F)(F)F)cc1` [Example 565], the Ki was determined as 49.2 nM. Next, `CCC(=O)Nc1cccc(C2CCN(CCCCC(=O)c3ccccc3Cl)CC2)c1` [Example 566]: 77.8 nM; `O=C(CCCCN1CCC(c2cccc(NC(=O)C3CC3)c2)CC1)c1ccccc1Cl` [Example 567]: 92.2 nM. Next, `O=C(CCCCN1CCC(c2cccc(NC(=O)C3CC3)c2)CC1)c1cccc(C(F)(F)F)c1` [Example 568]: 68.8 nM; `Cc1ccc(C(=O)CCCN2CCC(c3cccc(N(C)C(=O)C(C)C)c3)CC2)cc1C` [Example 569]: 549 nM; `CC(C)C(=O)Nc1cccc(C2CCN(C(C)CCC(=O)c3ccccc3)CC2)c1` (stereo not shown) [Example 570]: 136 nM. As to `CCC(=O)Nc1cccc(C2CCN(CCCCC(=O)c3cccc(C(F)(F)F)c3)CC2)c1` [Example 571], the Ki came to 88.3 nM.

Regarding `CC(C)C(=O)Nc1cccc(C2CCN(CCCCC(=O)N3C(=O)OC[C@H]3c3ccc(F)c(F)c3)CC2)c1` [Example 572], the inhibition constant (Ki) was found to be 181 nM. For the molecule `CC(C)C(=O)Nc1cccc(C2CCN(CCCNC(=O)N3C(=O)OC[C@H]3c3ccc(F)c(F)c3)CC2)c1` [Example 573], the Ki came to 114 nM. Next, `CC(C)C(=O)Nc1cccc(C2CCN(CCCCCN3C(=O)OC[C@@H]3c3ccc(F)c(F)c3)CC2)c1` [Example 574]: 87.1 nM. Next, `CC(C)C(=O)Nc1cccc(C2CCN(CCCCC(=O)N3C(=O)OC[C@@H]3c3ccc(F)c(F)c3)CC2)c1` [Example 575]: 193 nM; `CC(C)C(=O)Nc1cccc(C2CCN(CCCNC(=O)N3C(=O)OC[C@@H]3c3ccc(F)c(F)c3)CC2)c1` [Example 576]: 74.3 nM; `CC(C)C(=O)Nc1cccc(C2CCN(CCCNC(=O)N3C(=O)OC[C@@H]3c3cc(F)c(F)c(F)c3)CC2)c1` [Example 577]: 64.7 nM.

`CC(C)C(=O)Nc1cccc(C2CCN(CCCNC(=O)N3C(=O)OC[C@@H]3c3cc(F)cc(F)c3)CC2)c1` [Example 578]: the Ki turned out to be 98.8 nM. Next, `CCC(=O)Nc1cccc(C2CCN(CCCSc3ccccc3)CC2)c1` [Example 579]: 131 nM; `O=C(Nc1cccc(C2CCN(CCCSc3ccccc3)CC2)c1)C1CC1` [Example 580]: 54 nM. Next, `CC(C)C(=O)Nc1cccc(C2CCN(CCCSc3ccccc3)CC2)c1` [Example 581]: 86.4 nM. On to `O=C(Nc1cccc(C2CCN(CCCCCCSc3ccccc3)CC2)c1)C1CC1` [Example 582], for which the Ki is 58.3 nM. Next, `CCC(=O)Nc1cccc(C2CCN(CCCCSc3ccccc3)CC2)c1` [Example 583]: 55.5 nM.

For the molecule `O=C(Nc1cccc(C2CCN(CCCCSc3ccccc3)CC2)c1)C1CC1` [Example 584], the Ki is 51.8 nM.

`CC(C)C(=O)Nc1cccc(C2CCN(CCCCSc3ccccc3)CC2)c1` [Example 585]: the inhibition constant (Ki) was 37.2 nM. With `CC(C)C(=O)Nc1cccc(C2CCN(CCCCCSc3ccccc3)CC2)c1` [Example 586] the figure was 42.9 nM; with `O=C(Nc1cccc(C2CCN(CCCCCSc3ccccc3)CC2)c1)C1CC1` [Example 587], 46.9 nM. Take `CCC(=O)Nc1cccc(C2CCN(CCCCCCSc3ccccc3)CC2)c1` [Example 588]: the Ki amounted to 284 nM.

`CCC(=O)Nc1cccc(C2CCN(CCCCCSc3ccccc3)CC2)c1` [Example 589]: the Ki amounted to 66.6 nM. With `CC(C)C(=O)Nc1cccc(C2CCN(CCC[S+]([O-])c3ccc(F)cc3)CC2)c1` (stereo not shown) [Example 590] the figure was 157 nM; with `CC(C)C(=O)Nc1cccc(C2CCN(CCC[S+]([O-])c3ccccc3Br)CC2)c1` (stereo not shown) [Example 591], 138 nM; with `CC(C)C(=O)Nc1cccc(C2CCN(CC[C@H](NS(=O)(=O)c3ccc(F)c(F)c3)c3ccccc3)CC2)c1` [Example 592], 186 nM. Next, `CC(C)C(=O)Nc1cccc(C2CCN(CC[C@H](NC(=O)c3sccc3Cl)c3ccccc3)CC2)c1` [Example 593]: 7.6 nM; `CC(C)C(=O)Nc1cccc(C2CCN(CC[C@H](NS(=O)(=O)c3cccc4c(N(C)C)cccc34)c3ccccc3)CC2)c1` [Example 594]: 67 nM. With `Cc1ccc(S(=O)(=O)N[C@@H](CCN2CCC(c3cccc(NC(=O)C(C)C)c3)CC2)c2ccccc2)cc1` [Example 595] the figure was 36.3 nM. As for `CC(C)C(=O)Nc1cccc(C2CCN(CC[C@H](NS(=O)(=O)c3cc(Cl)cc(Cl)c3O)c3ccccc3)CC2)c1` [Example 596], the Ki is 597 nM.

Turning to `CC(C)C(=O)Nc1cccc(C2CCN(CC[C@H](NS(C)(=O)=O)c3ccccc3)CC2)c1` [Example 597], the inhibition constant Ki turned out to be 223 nM. Next, `CC(C)C(=O)Nc1cccc(C2CCN(CC[C@H](NS(=O)(=O)c3ccc(F)cc3)c3ccccc3)CC2)c1` [Example 598]: 25.3 nM; `CC(C)C(=O)Nc1cccc(C2CCN(CC[C@H](NS(=O)(=O)c3ccc(C(C)(C)C)cc3)c3ccccc3)CC2)c1` [Example 599]: 50 nM; `CC(C)C(=O)Nc1cccc(C2CCN(CC[C@H](NS(=O)(=O)c3cc(Cl)ccc3Cl)c3ccccc3)CC2)c1` [Example 600]: 41.3 nM.

Take `CCCS(=O)(=O)N[C@@H](CCN1CCC(c2cccc(NC(=O)C(C)C)c2)CC1)c1ccccc1` [Example 601]: the Ki came out at 144 nM. With `Cc1noc(C)c1S(=O)(=O)N[C@@H](CCN1CCC(c2cccc(NC(=O)C(C)C)c2)CC1)c1ccccc1` [Example 602] the figure was 44.6 nM; with `COC(=O)c1sccc1S(=O)(=O)NCCCN1CCC(c2cccc(NC(=O)C(C)C)c2)CC1` [Example 603, METHYL 3-{[(3-{4-[3-(ISOBUTYRYLAMINO)PHENYL]-1-PIPERIDINYL}PROPYL)AMINO]SULFONYL}-2-THIOPHENECARBOXYLATE], 287 nM; with `CC(C)C(=O)Nc1cccc(C2CCN(CC[C@H](NC(=O)Nc3ccc(Oc4ccccc4)cc3)c3ccccc3)CC2)c1` [Example 604], 36.8 nM. As to `CC(C)C(=O)Nc1cccc(C2CCN(CC[C@H](NC(=O)Nc3ccccc3)c3ccccc3)CC2)c1` [Example 605], the Ki worked out at 94.5 nM. With `CC(C)C(=O)Nc1cccc(C2CCN(CC[C@H](NC(=S)NC(C)(C)C)c3ccccc3)CC2)c1` [Example 606] the figure was 40.4 nM; with `CC(C)C(=O)Nc1cccc(C2CCN(CC[C@H](NC(=O)Nc3ccccc3F)c3ccccc3)CC2)c1` [Example 607], 142 nM.

As to `Cc1ccccc1NC(=S)N[C@@H](CCN1CCC(c2cccc(NC(=O)C(C)C)c2)CC1)c1ccccc1` [Example 608], the Ki worked out at 34.9 nM. For the molecule `CC(C)C(=O)Nc1cccc(C2CCN(CC[C@H](NC(=O)NCc3ccccc3)c3ccccc3)CC2)c1` [Example 609], the Ki worked out at 35.4 nM.

`CC(C)C(=O)Nc1cccc(C2CCN(CC[C@H](NC(=O)Nc3ccccc3[N+](=O)[O-])c3ccccc3)CC2)c1` [Example 610]: the inhibition constant (Ki) was determined as 530 nM.

`CC(C)C(=O)Nc1cccc(C2CCN(CC[C@H](NC(=O)Nc3ccc(Cl)c(Cl)c3)c3ccccc3)CC2)c1` [Example 611]: the Ki was found to be 65.1 nM.

In the case of `CSc1ccccc1NC(=O)N[C@@H](CCN1CCC(c2cccc(NC(=O)C(C)C)c2)CC1)c1ccccc1` [Example 612], the Ki was determined as 121 nM. With `CC(C)C(=O)Nc1cccc(C2CCN(CCCNC(=O)Nc3ccc(F)cc3)CC2)c1` [Example 613] the figure was 34.9 nM.

As to `CC(C)C(=O)Nc1cccc(C2CCN(CCCNC(=O)Nc3ccc(Cl)c(Cl)c3)CC2)c1` [Example 614], the Ki worked out at 84.8 nM.

For the molecule `Cc1ccccc1NC(=S)NCCCN1CCC(c2cccc(NC(=O)C(C)C)c2)CC1` [Example 615], the Ki was determined as 210 nM. As to `CC(C)C(=O)Nc1cccc(C2CCN(CCCNC(=O)NCc3ccccc3)CC2)c1` [Example 616], the Ki turned out to be 406 nM. On to `CCOc1ccc(NC(=O)NCCCN2CCC(c3cccc(NC(=O)C(C)C)c3)CC2)cc1` [Example 617], for which the inhibition constant Ki came out at 609 nM. With `CC(C)C(=O)Nc1cccc(C2CCN(CCCNC(=O)Nc3ccccc3)CC2)c1` [Example 618] the figure was 400 nM; with `CSc1ccccc1NC(=O)NCCCN1CCC(c2cccc(NC(=O)C(C)C)c2)CC1` [Example 619], 178 nM; with `CC(C)C(=O)Nc1cccc(C2CCN(CCCNC(=S)NC(C)(C)C)CC2)c1` [Example 620], 223 nM.

In the case of `CC(C)C(=O)Nc1cccc(C2CCN(CCCNC(=O)Nc3ccc(Oc4ccccc4)cc3)CC2)c1` [Example 621], the Ki was 205 nM.

As for `CC(=O)Nc1cccc(C2CCN(CCCNC(=O)C3=C(C)NC(=O)CC3c3ccc(F)cc3F)CC2)c1` (stereo not shown) [Example 622], the Ki came to 162 nM. With `CC(=O)Nc1cccc(C2CCN(CCCNC(=O)C3=C(C)NC(=O)CC3c3ccc(F)c(F)c3)CC2)c1` (stereo not shown) [Example 623] the figure was 23.1 nM; with `CC(C)C(=O)Nc1cccc(C2CCN(CCCCCCNC(=O)c3cnn(-c4ccc([N+](=O)[O-])cc4)c3C(F)(F)F)CC2)c1` [Example 624], 47.8 nM; with `CC(C)C(=O)Nc1cccc(C2CCN(CCCCCCNC(=O)C(c3ccccc3)c3ccccc3)CC2)c1` [Example 625], 29.5 nM. Next, `CC(C)C(=O)Nc1cccc(C2CCN(CCCCCCNC(=O)c3ccc(Oc4cc(Cl)cc(Cl)c4)o3)CC2)c1` [Example 626]: 20.9 nM. With `CC(C)C(=O)Nc1cccc(C2CCN(CCCCCCNC(=O)c3cccnc3Oc3ccccc3)CC2)c1` [Example 627] the figure was 109 nM; with `CC(C)C(=O)Nc1cccc(C2CCN(CCCCCCNC(=O)c3ccc4ccccc4c3)CC2)c1` [Example 628], 161 nM.

Turning to `CC(C)C(=O)Nc1cccc(C2CCN(CCCCCCNC(=O)c3cc(C(C)(C)C)nn3Cc3ccccc3)CC2)c1` [Example 629], the Ki amounted to 42.9 nM. With `CC(C)C(=O)Nc1cccc(C2CCN(CCCCCCNC(=O)c3scc(S(=O)(=O)C(C)C)c3Cl)CC2)c1` [Example 630] the figure was 202 nM; with `CC(C)C(=O)Nc1cccc(C2CCN(CCCCCCNC(=O)Nc3ccccc3)CC2)c1` [Example 631], 259 nM.
